5 compounds from patent US20090088412A1, “COMPOSITION FOR TREATING CANCER CELLS AND PREPARATION METHOD THEREOF” (KAOHSIUNG MEDICAL UNIVERSITY, priority 2007, published 2009) can be followed below.

Values after ≈ are worked out from the molar mass of the structure shown.

One assay has as its system Hep G2. The assay can be described thus: MTT cytotoxicity test, Hep G2. It is filed as cell-based, human. The conditions noted are these: liver cancer cell line, 72 hours. The protocol: (§1) The bioactivities of the 25 new withanolide compounds of the present invention are further studied. The bioactivities are measured by examining cytotoxicity tests with 5 human cancer cell lines, including MCF-7 and MDA-MB-231 (which are the breast cancer cell lines), Hep G2 and Hep 3B (which are the liver cancer cell line), and A549 (which is lung cancer cell line). In addition, a normal human lung cell line (MRC-5) is served as the control group. All human cancer cell lines come from the American Type Culture Collection. The respective cell lines are cultured in RPMI-1640 medium with 10% (v/v) fetal calf serum, 100 U/ml penicillin and 100 µg/ml streptomycin, and incubated at 37° C. in 5% CO2 atmosphere.
(§2) In the present invention, the cytotoxicity tests are performed with MTT (3-(4,5-dimethyl-thiazol-2-yl)-2,5-diphenyl tetrazolium bromide) method. The five cancer cell lines and the normal cell line (MRC-5) are firstly incubated in a 96-well culture dish with concentrations of 5,000˜10,000 cells/well. In Day 2, the respective incubated cells are added with the withanolide compounds of the present invention and Doxorubicin and are incubated for additional 72 hours. Afterwards, the incubated cells are examined with the MTT method including steps of dissolving the incubated cells in DMSO, and determining the absorbance of each cell line to each compound by a microplate reader in 550 nm to evaluate the cytotoxicity of each compound to each cell line. […] The IC50 represents the concentration of the compound that is required for 50% inhibition of the cell growth, and Doxorubicin serves as the positive control group.
For orientation: Tetrazolium dyes change colour on reduction, which living cells bring about.

A further assay concerns Hep 3B. The assay can be described thus: MTT cytotoxicity test, Hep 3B. It counts as cell-based, human. To be noted: liver cancer cell line, 72 hours. As to the method:
as §1, §2

A further assay relates to MCF-7. The assay can be described thus: MTT cytotoxicity test, MCF-7. To be noted: breast cancer cell line, 72 hours. It counts as cell-based, human. The protocol: as §1, §2
The test system of a further assay is A-549. The assay can be described thus: MTT cytotoxicity test, A-549. It is filed as cell-based, human. The conditions noted are these: lung cancer cell line, 72 hours. The protocol:
as §1, §2

Another assay concerns MDA-MB-231. The assay can be described thus: MTT cytotoxicity test, MDA-MB-231. It counts as cell-based, human. The conditions noted are these: breast cancer cell line, 72 hours. The protocol: as §1, §2
The test system of a further assay is MRC-5. The assay can be described thus: MTT cytotoxicity test, normal lung cell line MRC-5. It counts as cell-based. The conditions noted are these: normal human lung cell line, 72 hours. As to the method: as §1, §2

Regarding `CC1=C(C)[C@H](O)[C@H]([C@@H](C)[C@@]23O[C@@H]2C[C@H]2[C@@H]4C[C@H]5O[C@]56[C@@H](O)C=CC(=O)[C@]6(C)[C@H]4CC[C@@]23C)OC1=O` [Compound 10, 23-Hydroxytubocapsanolide A], the “IC50 Hep G2” value with Hep G2 was 0.44 µg/mL (≈ 0.908 µM). Moreover, the “IC50 Hep 3B” value in the assay with Hep 3B is 0.49 µg/mL (≈ 1.01 µM). For the same compound, in the assay on MCF-7, the “IC50 MCF-7” value came to 2.05 µg/mL (≈ 4.23 µM). In the assay on A-549, the “IC50 A-549” value is 0.79 µg/mL (≈ 1.63 µM). Also, the “IC50 MDA-MB-231” value in the assay with MDA-MB-231 amounted to 1.19 µg/mL (≈ 2.46 µM). Moreover, the “IC50 MRC-5” value with MRC-5 stood at 0.90 µg/mL (≈ 1.86 µM).
Take Tubocapsenolide D [Compound 4]: the “IC50 Hep G2” value in the assay with Hep G2 is 4.57 µg/mL. The “IC50 Hep 3B” value with Hep 3B worked out at 2.30 µg/mL. Besides, the “IC50 MCF-7” value with MCF-7 is 6.77 µg/mL. In addition, the “IC50 A-549” value in the assay with A-549 was found to be 4.24 µg/mL. The “IC50 MDA-MB-231” value in the assay with MDA-MB-231 came out at 6.55 µg/mL. The “IC50 MRC-5” value with MRC-5 came to 4.24 µg/mL.
Regarding `C[C@@]12CC([C@@]3(O)CC[C@H]4[C@@H]5C[C@H](O)[C@]6(O)[C@@H](O)C=CC(=O)[C@]6(C)[C@H]5CC[C@@]43C)[C@@H](C1)OC(=O)[C@]2(C)O` (stereo partly drawn) [Compound 20, Anomanolide B], in the assay on Hep G2, the “IC50 Hep G2” value was 0.97 µg/mL (≈ 1.92 µM). Besides, the “IC50 Hep 3B” value with Hep 3B was found to be 3.17 µg/mL (≈ 6.28 µM). Besides, the “IC50 MCF-7” value in the assay with MCF-7 is 4.84 µg/mL (≈ 9.59 µM). Also, the “IC50 A-549” value in the assay on A-549 is 1.49 µg/mL (≈ 2.95 µM). Besides, in the assay with MDA-MB-231, the “IC50 MDA-MB-231” value turned out to be 0.70 µg/mL (≈ 1.39 µM). Also, the “IC50 MRC-5” value with MRC-5 stood at 0.20 µg/mL (≈ 0.396 µM).
As to `CC1=C(C)C(=O)O[C@@H]([C@@H](C)[C@@]23O[C@@H]2C[C@H]2[C@@H]4C[C@H]5O[C@]56[C@@H](O)C=CC(=O)[C@]6(C)[C@H]4CC[C@@]23C)C1` [Compound 8, Tubocapsanolide A], the “IC50 Hep G2” value in the assay with Hep G2 stood at 0.86 µg/mL (≈ 1.84 µM). The “IC50 Hep 3B” value in the assay on Hep 3B stood at 0.42 µg/mL (≈ 0.896 µM). Moreover, in the assay on MCF-7, the “IC50 MCF-7” value worked out at 1.47 µg/mL (≈ 3.14 µM). For the same compound, in the assay with A-549, the “IC50 A-549” value amounted to 0.47 µg/mL (≈ 1 µM). Further, in the assay on MDA-MB-231, the “IC50 MDA-MB-231” value stood at 0.22 µg/mL (≈ 0.469 µM). Moreover, in the assay with MRC-5, the “IC50 MRC-5” value came out at 0.73 µg/mL (≈ 1.56 µM).
For `COC1CC(=O)[C@]2(C)[C@H]3CC[C@@]4(C)[C@@H](CC[C@]4(O)[C@@](C)(O)[C@H]4CC(C)=C(C)C(=O)O4)[C@@H]3C[C@H]3O[C@]32[C@H]1O` (stereo partly drawn) [Compound 17, 20-Hydroxytubocapsanolide G], the “IC50 Hep G2” value in the assay with Hep G2 turned out to be 2.51 µg/mL (≈ 4.84 µM). In addition, in the assay with Hep 3B, the “IC50 Hep 3B” value worked out at 12.30 µg/mL (≈ 23.7 µM). Moreover, the “IC50 MCF-7” value with MCF-7 was determined as 17.25 µg/mL (≈ 33.3 µM). Further, the “IC50 A-549” value with A-549 worked out at 2.67 µg/mL (≈ 5.15 µM). The “IC50 MDA-MB-231” value in the assay on MDA-MB-231 is 4.44 µg/mL (≈ 8.56 µM). The “IC50 MRC-5” value with MRC-5 turned out to be 7.20 µg/mL (≈ 13.9 µM).
